{"source": "ChEMBL document CHEMBL5608174", "about": "“Synthesis and biological evaluation of 4-phenyl-5-quinolinyl substituted isoxazole analogues as potent cytotoxic and tubulin polymerization inhibitors against ESCC” (Eur J Med Chem, 2024)", "key": {"[1]": {"assay": "Toxicity in female BALB/c-nu nude mouse xenografted with human KYSE-30 cells assessed as change in lung pathology at 6 to 12 mg/kg, ip administered for 15 days by H and E staining based analysis", "format": "organism-based", "details": "in vivo, 360 h, dose 6-12 mg/kg, time 15 day"}, "KYSE-30 [2]": {"system": "KYSE-30", "assay": "Induction of apoptosis in human KYSE-30 cells assessed as viable cells at 5 nmol/L incubated for 48 hrs by Annexin V-FITC/PI staining based flow cytometry analysis (reference value: 88.76 %)", "format": "functional", "details": "read-out: Activity"}, "KYSE-70 cell line [3]": {"system": "KYSE-70 cell line", "assay": "Effect on nuclear replication in human KYSE-70 cells at 5 to 20 nmol/L incubated for 24 hrs by DAPI staining based fluorescence microscopic analysis", "format": "functional, cell-based", "details": "dose 5-20 nmol/L"}, "[4]": {"assay": "Toxicity in female BALB/c-nu nude mouse xenografted with human KYSE-30 cells assessed as change in liver pathology at 6 to 12 mg/kg, ip administered for 15 days by H and E staining based analysis", "format": "organism-based", "details": "in vivo, 360 h, dose 6-12 mg/kg, time 15 day"}, "Tubulin (Homo sapiens) [5]": {"molecular_target": "T1, Tubulin (Homo sapiens) (UniProt P68371+Q9H4B7+P0DPH7+P68366+Q13509+Q71U36+P04350+Q3ZCM7+P07437+P68363+Q9BQE3+Q6PEY2+Q13885+Q9BVA1+Q9BUF5)", "assay": "Inhibition of tubulin polymerization in human KYSE-30 cells assessed as effect on mitotic phase at 5 to 20 nmol/L incubated for 24 hrs by DAPI staining based fluorescence microscopic analysis", "format": "cell-based", "details": "dose 5-20 nmol/L"}, "KYSE-30 [6]": {"system": "KYSE-30", "assay": "Induction of apoptosis in human KYSE-30 cells assessed as early apoptotic cells at 20 nmol/L incubated for 48 hrs by Annexin V-FITC/PI staining based flow cytometry analysis (reference value: 4.38 %)", "format": "functional"}, "Sus scrofa": {"species_on_record": "Sus scrofa", "assay": "Inhibition of porcine brain tubulin polymerization measured every 30 secs for 120 times in the presence of GTP by fluorescence based assay", "details": "time 60.0 min"}, "[7]": {"assay": "Toxicity in female BALB/c-nu nude mouse xenografted with human KYSE-30 cells assessed as change in heart pathology at 6 to 12 mg/kg, ip administered for 15 days by H and E staining based analysis", "format": "organism-based", "details": "in vivo, 360 h, dose 6-12 mg/kg, time 15 day"}, "[8]": {"molecular_target": "T2, Tubulin beta (Homo sapiens) (UniProt P68371+Q9H4B7+Q13509+P04350+Q3ZCM7+P07437+Q13885+Q9BVA1+Q9BUF5+A6NNZ2)", "assay": "Binding affinity to beta-tubulin colchicine binding site in human KYSE-30 cells assessed as inhibition of EBI-beta-tubulin adduct band formation at 0 to 10 micromol/L preincubated for 2 hrs followed by EBI addition measured after 2 hrs by EBI competition based Western blotting analysis", "format": "cell-based", "details": "dose 0-10 µmol/L, time 4.0 hrs"}, "KYSE-30 [9]": {"system": "KYSE-30", "assay": "Upregulation of p-Histone H3 level in human KYSE-30 cells at 5 to 20 nmol/L by Western blot analysis", "format": "functional, cell-based", "details": "dose 5-20 nmol/L"}, "[10]": {"system": "Esophageal squamous cell carcinoma cell", "assay": "Induction of apoptosis in human Esophageal squamous cell carcinoma cell assessed as increase in caspase-3 activation at 5 to 20 nmol/L incubated for 48 hrs by Western blot analysis", "format": "functional, cell-based", "details": "dose 5-20 nmol/L"}, "[11]": {"assay": "Toxicity in female BALB/c-nu nude mouse xenografted with human KYSE-30 cells assessed as effect on serum total bilirubin level at 6 to 12 mg/kg, ip administered for 15 days by biochemical analysis", "format": "organism-based", "details": "in vivo, 360 h, dose 6-12 mg/kg, time 15 day"}, "[12]": {"assay": "Toxicity in female BALB/c-nu nude mouse xenografted with human KYSE-30 cells assessed as change in spleen pathology at 6 to 12 mg/kg, ip administered for 15 days by H and E staining based analysis", "format": "organism-based", "details": "in vivo, 360 h, dose 6-12 mg/kg, time 15 day"}, "[13]": {"molecular_target": "T2, Tubulin beta (Homo sapiens)", "assay": "Binding affinity to beta-tubulin colchicine binding site in human KYSE-70 cells assessed as inhibition of EBI-beta-tubulin adduct band formation at 0 to 10 micromol/L preincubated for 2 hrs followed by EBI addition measured after 2 hrs by EBI competition based Western blotting analysis", "format": "cell-based", "details": "dose 0-10 µmol/L, time 4.0 hrs"}, "KYSE-30 [14]": {"system": "KYSE-30", "assay": "Induction of apoptosis in human KYSE-30 cells assessed as early apoptotic cells at 10 nmol/L incubated for 48 hrs by Annexin V-FITC/PI staining based flow cytometry analysis (reference value: 4.38 %)", "format": "functional"}, "HCT-116": {"system": "HCT-116", "assay": "cells", "details": "Homo sapiens, HCT-116, 48 h", "description": "Antiproliferative activity against human HCT-116 cells assessed as inhibition of cell proliferation incubated for 48 hrs by MTT assay"}, "KYSE-30 [15]": {"system": "KYSE-30", "assay": "Induction of apoptosis in human KYSE-30 cells assessed as necrotic cells at 10 nmol/L incubated for 48 hrs by Annexin V-FITC/PI staining based flow cytometry analysis (reference value: 1.59 %)", "format": "functional"}, "KYSE-30 [16]": {"system": "KYSE-30", "assay": "Induction of apoptosis in human KYSE-30 cells assessed as late apoptotic cells at 5 nmol/L incubated for 48 hrs by Annexin V-FITC/PI staining based flow cytometry analysis (reference value: 5.27 %)", "format": "functional"}, "KYSE-70 cell line [17]": {"system": "KYSE-70 cell line", "assay": "Induction of apoptosis in human KYSE-70 cells assessed as late apoptotic cells at 20 nmol/L incubated for 48 hrs by Annexin V-FITC/PI staining based flow cytometry analysis (reference value: 3.01%)", "format": "functional"}, "[18]": {"assay": "Toxicity in female BALB/c-nu nude mouse xenografted with human KYSE-30 cells assessed as effect on serum ALT level at 6 to 12 mg/kg, ip administered for 15 days by biochemical analysis", "format": "organism-based", "details": "in vivo, 360 h, dose 6-12 mg/kg, time 15 day"}, "KYSE-30 [19]": {"system": "KYSE-30", "assay": "Antitumor activity against human KYSE-30 cells xenografted in female BALB/c-nu nude mouse assessed as reduction in tumor volume at 6 to 12 mg/kg, ip administered daily for 15 days", "format": "functional, organism-based", "details": "dose 6-12 mg/kg, time 15.0 day"}, "KYSE-30 [20]": {"system": "KYSE-30", "assay": "Inhibition of cell migration in human KYSE-30 cells at 2 to 6 nmol/L incubated upto 48 hrs by wound healing assay", "format": "functional, cell-based", "details": "dose 2-6 nmol/L"}, "[21]": {"system": "Esophageal squamous cell carcinoma cell", "assay": "Induction of apoptosis in human Esophageal squamous cell carcinoma cell assessed as increase in caspase-7 activation at 5 to 20 nmol/L incubated for 48 hrs by Western blot analysis", "format": "functional, cell-based", "details": "dose 5-20 nmol/L"}, "KYSE-30 [22]": {"system": "KYSE-30", "assay": "Induction of apoptosis in human KYSE-30 cells assessed as viable cells at 20 nmol/L incubated for 48 hrs by Annexin V-FITC/PI staining based flow cytometry analysis (reference value: 88.76 %)", "format": "functional", "details": "read-out: Activity"}, "[23]": {"system": "Esophageal squamous cell carcinoma cell", "assay": "Antiproliferative activity against human Esophageal squamous cell carcinoma cells assessed as reduction in EdU-positive cells at 5 to 20 nmol/L incubated for 48 hrs by EdU staining based inverted fluorescence microscopic analysis", "format": "functional", "details": "dose 5-20 nmol/L"}, "Tubulin (Homo sapiens) [24]": {"molecular_target": "T1, Tubulin (Homo sapiens)", "assay": "Inhibition of tubulin polymerization in human KYSE-30 cells assessed as multinucleation of cells at 5 to 20 nmol/L incubated for 24 hrs by DAPI staining based fluorescence microscopic analysis", "format": "cell-based", "details": "dose 5-20 nmol/L"}, "KYSE-30 [25]": {"system": "KYSE-30", "assay": "Induction of morphological changes in human KYSE-30 cells assessed as induction of fragmentation in nuclei at 5 to 20 nmol/L incubated for 48 hrs by DAPI staining based fluorescence microscopic analysis", "format": "functional, cell-based", "details": "dose 5-20 nmol/L"}, "Tubulin (Homo sapiens) [26]": {"molecular_target": "T1, Tubulin (Homo sapiens)", "assay": "Inhibition of tubulin polymerization in human KYSE-70 cells assessed as effect on mitotic phase at 5 to 20 nmol/L incubated for 24 hrs by DAPI staining based fluorescence microscopic analysis", "format": "cell-based", "details": "dose 5-20 nmol/L"}, "KYSE-30 [27]": {"system": "KYSE-30", "assay": "Antitumor activity against human KYSE-30 cells xenografted in female BALB/c-nu nude mouse assessed as reduction in tumor weight at 6 to 12 mg/kg, ip administered daily for 15 days", "format": "functional, organism-based", "details": "dose 6-12 mg/kg, time 15.0 day"}, "KYSE-30 [28]": {"system": "KYSE-30", "assay": "Induction of apoptosis in human KYSE-30 cells assessed as necrotic cells at 5 nmol/L incubated for 48 hrs by Annexin V-FITC/PI staining based flow cytometry analysis (reference value: 1.59 %)", "format": "functional"}}, "note": "Active and inactive are the calls of the source. The calls are words filed in the database; no cut-off is given here."}
{"smiles": "COc1ccc(-c2cnoc2-c2cc(C)nc3ccccc23)cc1", "values": [{"measurement": "Activity", "setting": "[1]", "result": "Non-Toxic"}, {"measurement": "viability at 0.005 µM", "setting": "KYSE-30 [2]", "result": 38.8, "unit": "%"}, {"measurement": "Activity", "setting": "KYSE-70 cell line [3]", "result": "inactive"}, {"measurement": "Activity", "setting": "[4]", "result": "Non-Toxic"}, {"measurement": "inhibition", "setting": "Tubulin (Homo sapiens) [5]", "result": "Active"}, {"measurement": "Activity", "setting": "KYSE-30 [6]", "result": 47.76, "unit": "%"}, {"measurement": "inhibition", "setting": "Sus scrofa", "result": "Active"}, {"measurement": "Activity", "setting": "[7]", "result": "Non-Toxic"}, {"measurement": "Activity", "setting": "[8]", "result": "Active"}, {"measurement": "Activity", "setting": "KYSE-30 [9]", "result": "Active"}, {"measurement": "Activity", "setting": "[10]", "result": "Active"}, {"measurement": "Activity", "setting": "[11]", "result": "Non-Toxic"}, {"measurement": "Activity", "setting": "[12]", "result": "Non-Toxic"}, {"measurement": "Activity", "setting": "[13]", "result": "Active"}, {"measurement": "Activity", "setting": "KYSE-30 [14]", "result": 47.75, "unit": "%"}, {"measurement": "IC50", "setting": "HCT-116", "result": 26, "unit": "nM"}, {"measurement": "Activity", "setting": "KYSE-30 [15]", "result": 2.86, "unit": "%"}, {"measurement": "Activity", "setting": "KYSE-30 [16]", "result": 11.99, "unit": "%"}, {"measurement": "Activity", "setting": "KYSE-70 cell line [17]", "result": 17.48, "unit": "%"}, {"measurement": "Activity", "setting": "[18]", "result": "Non-Toxic"}, {"measurement": "Activity", "setting": "KYSE-30 [19]", "result": "Active"}, {"measurement": "inhibition", "setting": "KYSE-30 [20]", "result": "Active"}, {"measurement": "Activity", "setting": "[21]", "result": "Active"}, {"measurement": "viability at 0.02 µM", "setting": "KYSE-30 [22]", "result": 38.9, "unit": "%"}, {"measurement": "Activity", "setting": "[23]", "result": "Active"}, {"measurement": "inhibition", "setting": "Tubulin (Homo sapiens) [24]", "result": "Active"}, {"measurement": "Activity", "setting": "KYSE-30 [25]", "result": "Active"}, {"measurement": "inhibition", "setting": "Tubulin (Homo sapiens) [26]", "result": "Active"}, {"measurement": "Activity", "setting": "KYSE-30 [27]", "result": "Active"}, {"measurement": "Activity", "setting": "KYSE-30 [28]", "result": 2.61, "unit": "%"}]}
